Where a name gives a salt, the structure may show the parent alone.
Key:
[1] = Compound solubility experiment, Method 2: about 2 mg salt in 0.2 mL ultrapure water, dissolution observed; type: physicochemical; conditions: 37 °C, thermodynamic from solid, salts, 37±1° C., shaken 24 hours
Method: Method 2: A 0.5 mL brown EP tube was taken, about 2 mg of hydrochloride of derivatives of 2,5-diketopiperazine compounds was weighed respectively, and 0.2 mL of ultrapure water was added thereto. The mixture was vortexed, put into an incubation shaker, maintained at a temperature of (37±1° C.), shaken at 100 r/min for 24 hours, so as to achieve full dissolution equilibrium. The dissolution of the mixture was observed.

NCI-H460 = test: Inhibition test on cell proliferation (MTT), NCI-H460; type: cell-based, human; conditions: 72 hours of drug treatment, MTT; hydrochloride; read-out: IC50 (nM) NCI-H460
Summary of the method: (§1)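 Cells plated at 2000-6000 per well, allowed to adhere for 24 h, then exposed to serially diluted compound for 72 h at 37 °C, 5% CO2. Viability read by MTT reduction, with formazan dissolved in DMSO and absorbance taken at 490 nm. Inhibition rate calculated relative to untreated and zero-setting wells.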

β-tubulin [2] = test: Immunofluorescence experiment, NCI-H460 cell line; type: cell-based, human
Method: (§2) 1. Cell membrane rupture: After the cover slip was shaken to slight dryness, a circle was drawn using a histochemical pen at the position where the cells were evenly distributed in the middle of the cover slip (to prevent the antibody from flowing away). 50 to 100 μL of membrane rupture working solution was added, and incubated at room temperature for 20 min, washed 3 times with PBS, 5 min each time.
(§3) 2. Serum blocking: BSA was added dropwise in the circle to evenly cover the tissue and block at room temperature for 30 min. (The primary antibody was from goat and blocked with 10% normal rabbit serum, and the primary antibody from other sources was blocked with 3% BSA)
(§4) 3. Adding the primary antibody: The blocking solution was shaken off gently, and the primary antibody was added dropwise in the cell well plate (prepared in a certain proportion using PBS), and the cell culture plate was placed flat in a humid box and incubated overnight at 4° C.
(§5) 4. Adding secondary antibody: PBS was added to the cell culture plate, placed on a decolorizing shaker, shaken and washed for 3 times, 5 min each time. After shaking to slight dryness, a secondary antibody corresponding to the species of the primary antibody in the histochemical kit was added dropwise in the circle to cover the tissue, and incubated at room temperature for 50 min.
(§6) 5. DAPI restaining nucleus: The cover slip was placed in PBS (pH 7.4), shaken and washed 3 times on the decolorizing shaker, 5 min each time. After the cover slip was shaken to slight dryness, DAPI staining solution was added dropwise in the circle, and incubated at room temperature for 10 min in the dark.
(§7) 6. Sealing the cover slip: The cover slip was placed in PBS (pH 7.4), shaken and washed 3 times on the decolorizing shaker, 5 min each time. After the cover slip was shaken to slight dryness, the cover slip was sealed with antifade mounting medium.
(§8) 7. Microscopic examination and photographing: The cover slip was observed under a fluorescent microscope and images were collected.

β-tubulin [3] = test: Immunofluorescence experiment, BxPC-3 cell line; type: cell-based, human
Method: as §2, §3, §4, §5, §6, §7, §8

BxPC-3 = test: Inhibition test on cell proliferation (MTT), BxPC-3; type: cell-based, human; conditions: 72 hours of drug treatment, MTT; hydrochloride; read-out: IC50 (nM) BxPC-3
Summary of the method: as §1

HCC-LM3 = test: Inhibition test on cell proliferation (MTT), HCC-LM3; type: cell-based, human; conditions: 72 hours of drug treatment, MTT; hydrochloride; read-out: IC50 (nM) HCC-LM3
Summary of the method: as §1

BxPC-3 cell line = test: Cell apoptosis experiment (Annexin V/PI double staining, flow cytometer), BxPC-3; type: cell-based, human
Method: (§9) 1. Cell collection: The cell culture dish was taken out, the culture medium was washed with PBS, digested with EDTA-free trypsin, collected into a centrifuge tube. The number of cells per sample was about 1×10^6/mL, and the centrifuge tube was centrifuged at 800 r/min for 3 min, and the culture medium was discarded.
(§10) 2. The residue was washed twice with frozen PBS, centrifuged at 800 r/min for 3 min each time, and the supernatant was discarded.
(§11) 3. Blank group, single-stained group and double-stained group were set, and 100 μL of binding buffer was added thereto. 5 μL of FITC-annexin V and 5 μL of PI were chosen according to different groups, mixed gently, incubated at room temperature in the dark for 15 min, then 400 μL of binding buffer was added thereto, and the cells were gently mixed.
(§12) 4. After filtering the cell suspension with a 300-mesh nylon membrane, the cell suspension was detected by a flow cytometer.

HT-29 = test: Inhibition test on cell proliferation (MTT), HT-29; type: cell-based, human; conditions: 72 hours of drug treatment, hydrochloride
Summary of the method: as §1

NCI-H460 cell line = test: Cell apoptosis experiment (Annexin V/PI double staining, flow cytometer), NCI-H460; type: cell-based, human
Method: as §9, §10, §11, §12

CC(C)c1c(/C=c2\[nH]c(=O)/c(=C/c3cccc(C(=O)c4ccc(F)cc4)c3)[nH]c2=O)ncn1CCCN1CCOCC1 [PLN-2-1-1, (3Z,6Z)-3-(3-(p-Fluorobenzoyl)phenyl)methylene-6-((5-isopropyl-1-(3-morpholinyl)propylimidazol-4-yl)methylene)piperazine-2,5-dione, hydrochloride] gave a solubility at 24 h [1] greater than 10000 µg/mL, an IC50 (NCI-H460) of 2.28 ± 1.24 nM and a β-tubulin fluorescence value (β-tubulin [2]; NCI-H460 cell line, control 20330 ± 1233) of 5344. The “number of tubulin distributed radially” value (β-tubulin [2]; NCI-H460 cells, in words) was “significantly reduced”, the β-tubulin fluorescence value (β-tubulin [3]; BxPC-3 cell line, control 29873 ± 4013) was 9533 and the “number of tubulin distributed radially” value (β-tubulin [3]; BxPC-3 cells, in words) was “significantly reduced”. The IC50 (BxPC-3) was 1.77 ± 0.03 nM, the IC50 (HCC-LM3) was 2.04 ± 0.57 nM and the number of apoptosis (BxPC-3 cell line; BxPC-3, in words) was “significantly increased”. For the same molecule, the “Proportion of late apoptotic cells” value (BxPC-3 cell line; BxPC-3, blank control 0.94%) was 6.79%, the “Proportion of early apoptotic cells” value (BxPC-3 cell line; BxPC-3, blank control 1.11%) was 3.82% and the IC50 (HT-29) was 1.56 ± 0.47 nM. For the same molecule, the number of apoptosis (NCI-H460 cell line; NCI-H460, in words) was “significantly increased”, the “Proportion of late apoptotic cells” value (NCI-H460 cell line; NCI-H460, blank control 0.54%) was 9.70% and the “Proportion of early apoptotic cells” value (NCI-H460 cell line; NCI-H460, blank control 1.84%) was 3.55%.

— patent publication US20240140941A1, “DERIVATIVE OF 2,5-DIKETOPIPERAZINE COMPOUND, AND PREPARATION METHOD THEREFOR, PHARMACEUTICAL COMPOSITION THEREOF AND USE THEREOF” (DALIAN WZ PROBIOTICS AD HEALTH CO., LTD, priority 2020, published 2024)
